Like-named read-outs stand apart in the source and are kept apart here.
Tested on: Prostate cancer cells 22RV1
Test: Experiment on inhibiting 22RV1 cell proliferation (CellTiter-Glo, 7 days)
Type: cell-based
Conditions: Homo sapiens, 168 h, 22RV1 cells, 7 days incubation, read-out: IC50 values for inhibition of 22RVI cells
Experimental: Prostate cancer cells 22RV1 were purchased from ATCC, the cell medium was RPMI 1640+10% FBS, and the cells were cultured in an incubator at 37° C. under 5% CO2. On day 1, the cells in the exponential growth phase were collected. With a 1% css-FBS phenol red-free medium, the cell suspension was adjusted to a corresponding concentration, plated at 2000 cells/well and incubated overnight. On day 2, compounds at different concentrations were added, and the plate was placed in the incubator and incubated for further 7 days. After the incubation was completed, according to operation instructions for a CellTiter-Glo kit (Promega, G7573), 50 μL of CellTiter-Glo reagents, which were already pre-melted and equilibrated to room temperature, were added to each well, and the mixtures were uniformly mixed for 2 min using a microplate shaker. The plate was placed at room temperature for 10 min. and then […] signal values were measured using a microplate reader (PHERAstar FSX). The results were processed according to formula (I), the inhibition rate of the compound at different concentrations was calculated, and the IC50 value of the compound with an inhibition rate of 50% was calculated using origin9.2 software with DoseResp function, wherein RLUcompound was the readout of the treated group, and RLUcontrol was the average value of the DMSO vehicle control group.

[1] = cells with nM printed beside the value
[2] = cells without a unit of their own (μM)

| Structure (SMILES) | IC50 [1] | IC50 [2] |
| --- | --- | --- |
| [2H]C1([2H])C([2H])([2H])C(C(=O)Nc2ccc(C(F)(F)F)cc2Cl)(n2cc(C#CC3CN(c4ccc5c(c4)C(=O)N(C4CCC(=O)NC4=O)C5=O)C3)cn2)C1([2H])[2H] (stereo not shown) [Compound 113, N-(2-chloro-4-(trifluoromethyl)phenyl)-1-(4-((1-(2-(2,6-dioxopiperidin-3-yl)-1,3-dioxoisoindolin-5-yl)azetidin-3-yl)ethynyl)-1H-pyrazol-1-yl)cyclobutane-2,2,3,3,4,4-d6-1-carboxamide] | < 50 nM | – |
| CC(C)(C(=O)Nc1ccc(C(F)(F)F)cc1-n1cncn1)n1cc(C#CC2CN(c3ccc4c(c3)C(=O)N(C3CCC(=O)NC3=O)C4=O)C2)cn1 (stereo not shown) [Compound 117, N-(2-(1H-1,2,4-triazol-1-yl)-4-(trifluoromethyl)phenyl)-2-(4-((1-(2-(2,6-dioxopiperidin-3-yl)-1,3-dioxoisoindolin-5-yl)azetidin-3-yl)ethynyl)-1H-pyrazol-1-yl)-2-methylpropanamide] | – | < 1000 nM |
| CC(C)(C(=O)Nc1ccc(C(F)(F)F)cc1Cl)n1cnc2ccc(C#CC3CN(c4ccc5c(c4)C(=O)N(C4CCC(=O)NC4=O)C5=O)C3)cc21 (stereo not shown) [Compound 161, N-(2-chloro-4-(trifluoromethyl)phenyl)-2-(6-((1-(2-(2,6-dioxopiperidin-3-yl)-1,3-dioxoisoindolin-5-yl)azetidin-3-yl)ethynyl)-1H-benzo[d]imidazol-1-yl)-2-methylpropanamide] | – | < 1000 nM |
| CC(C)(C(=O)Nc1ccc(C(F)(F)F)cc1Cl)n1cnc2cc(C#CC3CN(c4ccc5c(c4)C(=O)N(C4CCC(=O)NC4=O)C5=O)C3)ccc21 (stereo not shown) [Compound 162, N-(2-chloro-4-(trifluoromethyl)phenyl)-2-(5-((1-(2-(2,6-dioxopiperidin-3-yl)-1,3-dioxoisoindolin-5-yl)azetidin-3-yl)ethynyl)-1H-benzo[d]imidazol-1-yl)-2-methylpropanamide] | – | < 1000 nM |
| Cc1c(C#CC2CN(c3ccc4c(c3)C(=O)N(C3CCC(=O)NC3=O)C4=O)C2)cnn1C1(C(=O)Nc2ccc(C(F)(F)F)cc2Cl)CCC1 (stereo not shown) [Compound 163, N-(2-chloro-4-(trifluoromethyl)phenyl)-1-(4-((1-(2-(2,6-dioxopiperidin-3-yl)-1,3-dioxoisoindolin-5-yl)azetidin-3-yl)ethynyl)-5-methyl-1H-pyrazol-1-yl)cyclobutane-1-carboxamide] | < 50 nM | – |
| Cc1nn(C2(C(=O)Nc3ccc(C(F)(F)F)cc3Cl)CCC2)c(C)c1C#CC1CN(c2ccc3c(c2)C(=O)N(C2CCC(=O)NC2=O)C3=O)C1 (stereo not shown) [Compound 166, N-(2-chloro-4-(trifluoromethyl)phenyl)-1-(4-((1-(2-(2,6-dioxopiperidin-3-yl)-1,3-dioxoisoindolin-5-yl)azetidin-3-yl)ethynyl)-3,5-dimethyl-1H-pyrazol-1-yl)cyclobutane-1-carboxamide] | < 50 nM | – |
| [2H]C([2H])([2H])C(C(=O)Nc1ccc(C(F)(F)F)cc1C#CC)(n1cc(C#CC2CN(c3ccc4c(c3)C(=O)N(C3CCC(=O)NC3=O)C4=O)C2)cn1)C([2H])([2H])[2H] (stereo not shown) [Compound 175, 2-(4-((1-(2-(2,6-dioxopiperidin-3-yl)-1,3-dioxoisoindolin-5-yl)azetidin-3-yl)ethynyl)-1H-pyrazol-1-yl)-2-(methyl-d3)—N-(2-(prop-1-yn-1-yl)-4-(trifluoromethyl)phenyl) propanamide-d3] | < 100 nM | – |
| CN(C)c1ccc(NC(=O)C2(n3cc(C#CC4CN(c5ccc6c(c5)C(=O)N(C5CCC(=O)NC5=O)C6=O)C4)cn3)CCC2)c(Cl)c1 (stereo not shown) [Compound 181, N-(2-chloro-4-(dimethylamino)phenyl)-1-(4-(2-(1-(2-(2,6-dioxopiperidin-3-yl)-1,3-dioxo-2,3-dihydro-1H-isoindol-5-yl)azetidin-3-yl)ethynyl)-1H-pyrazol-1-yl)cyclobutane-1-carboxamide] | < 50 nM | – |

More lines, now with the values ahead:

| IC50 [1] | IC50 [2] | Structure (SMILES) |
| --- | --- | --- |
| < 50 nM | – | CC(C)(C(=O)Nc1ccc(C(F)(F)F)cc1C#CC1CC1)n1cc(C#CC2CN(c3ccc4c(c3)C(=O)N(C3CCC(=O)NC3=O)C4=O)C2)cn1 (stereo not shown) [Compound 116, N-(2-(cyclopropylethynyl)-4-(trifluoromethyl)phenyl)-2-(4-((1-(2-(2,6-dioxopiperidin-3-yl)-1,3-dioxoisoindolin-5-yl)azetidin-3-yl)ethynyl)-1H-pyrazol-1-yl)-2-methylpropanamide] |
| < 50 nM | – | Cc1c(C#N)ccc(NC(=O)C(C)(C)n2cc(C#CC3CN(c4ccc5c(c4)C(=O)N(C4CCC(=O)NC4=O)C5=O)C3)cn2)c1C (stereo not shown) [Compound 152, N-(4-cyano-2,3-dimethylphenyl)-2-(4-((1-(2-(2,6-dioxopiperidin-3-yl)-1,3-dioxoisoindolin-5-yl)azetidin-3-yl)ethynyl)-1H-pyrazol-1-yl)-2-methylpropanamide] |
| < 100 nM | – | CC(C)(C(=O)Nc1ccc(C#N)c2c1C1CCC2C1)n1cc(C#CC2CN(c3ccc4c(c3)C(=O)N(C3CCC(=O)NC3=O)C4=O)C2)cn1 (stereo not shown) [Compound 165, N-(8-cyano-1,2,3,4-tetrahydro-1,4-methanonaphthalen-5-yl)-2-(4-((1-(2-(2,6-dioxopiperidin-3-yl)-1,3-dioxoisoindolin-5-yl)azetidin-3-yl)ethynyl)-1H-pyrazol-1-yl)-2-methylpropanamide] |
| < 50 nM | – | C=CCc1cc(C(F)(F)F)ccc1NC(=O)C(C)(C)n1cc(C#CC2CN(c3ccc4c(c3)C(=O)N(C3CCC(=O)NC3=O)C4=O)C2)cn1 (stereo not shown) [Compound 169, N-(2-allyl-4-(trifluoromethyl)phenyl)-2-(4-((1-(2-(2,6-dioxopiperidin-3-yl)-1,3-dioxoisoindolin-5-yl)azetidin-3-yl)ethynyl)-1H-pyrazol-1-yl)-2-methylpropanamide] |
| < 50 nM | – | CC(C)(C(=O)Nc1ccc(C#N)cc1-n1cccn1)n1cc(C#CC2CN(c3ccc4c(c3)C(=O)N(C3CCC(=O)NC3=O)C4=O)C2)cn1 (stereo not shown) [Compound 172, N-(4-cyano-2-(1H-pyrazol-1-yl)phenyl)-2-(4-((1-(2-(2,6-dioxopiperidin-3-yl)-1,3-dioxoisoindolin-5-yl)azetidin-3-yl)ethynyl)-1H-pyrazol-1-yl)-2-methylpropanamide] |
| < 50 nM | – | Cn1c(C(F)(F)F)ccc(NC(=O)C(C)(C)n2cc(C#CC3CN(c4ccc5c(c4)C(=O)N(C4CCC(=O)NC4=O)C5=O)C3)cn2)c1=O (stereo not shown) [Compound 178] |
| < 100 nM | – | CN(C)c1cc(C(F)(F)F)ccc1NC(=O)C(C)(C)n1cc(C#CC2CN(c3ccc4c(c3)C(=O)N(C3CCC(=O)NC3=O)C4=O)C2)cn1 (stereo not shown) [Compound 182, N-(2-(dimethylamino)-4-(trifluoromethyl)phenyl)-2-(4-((1-(2-(2,6-dioxopiperidin-3-yl)-1,3-dioxoisoindolin-5-yl)azetidin-3-yl)ethynyl)-1H-pyrazol-1-yl)-2-methylpropanamide] |
| < 100 nM | – | Cc1nn(C(C)(C)C(=O)Nc2ccc(C#N)cc2C2CC2)cc1C#CC1CN(c2ccc3c(c2)C(=O)N(C2CCC(=O)NC2=O)C3=O)C1 (stereo not shown) [Compound 184, N-(4-cyano-2-cyclopropylphenyl)-2-(4-((1-(2-(2,6-dioxopiperidin-3-yl)-1,3-dioxoisoindolin-5-yl)azetidin-3-yl)ethynyl)-3-methyl-1H-pyrazol-1-yl)-2-methylpropanamide] |

— patent US20250171417A1, “HETEROCYCLIC DERIVATIVE, AND COMPOSITION AND PHARMACEUTICAL USE THEREOF” (Xizang Haisco Pharmaceutical Co., Ltd., priority 2021, published 2025)
